Measured values from ChEMBL document CHEMBL3507680, “University of Dundee, Gates Library screen for HepG2 cell viability”.

Test: Human HepG2 cell viability assay in 384 well format
Assay type: toxicity, cell-based
Set-up: dose 125 nL, time 70.5 hour; cytotoxicity at 70.5 h: concentration not given beside the values
Settings: HepG2 cells, read-out: Inhibition

| Structure (SMILES) | cytotoxicity at 70.5 h [%] |
| --- | --- |
| CCCS(=O)(=O)N1CCOC2(CCCN(c3ccccn3)C2)C1 (configuration not stated) | -13.3 |
| CN(C)c1ncc2c(n1)N(C)CCN(CC1CC1)C2=O | -2.69 |
| Cc1cc(N2CCC(Cc3cccnc3)CC2)ncn1 | 23.3 |
| CN(C)C(=O)[C@H]1C[C@@H]2CN(C(=O)NCC3CCCCC3)C[C@H]1O2 | -0.82 |
| CCc1nc(CN2CCCC(NCc3ccc(C(N)=O)cc3)C2)no1 (configuration not stated) | -10.1 |
| CS(=O)(=O)NCCCn1ccc2ccccc21 | -13.2 |
| Cc1cnn(CC2CCCN2C(=O)c2csc(C3CC3)n2)c1 (configuration not stated) | -0.994 |
| Cc1nc(C#N)c(N2CCC(c3nc(-c4ccc(F)cc4)no3)CC2)o1 | 28.5 |
| CC(=O)Nc1nc(C(=O)NCCOc2ccc(C)cc2)cs1 | 13.3 |
| Cc1ccc(S(=O)(=O)CCC(=O)NCc2nnc3n2CCC3)cc1 | -3.09 |
| Cc1ccc(CN2CCC(n3cc(C(O)c4ccccc4)nn3)CC2)o1 (configuration not stated) | -5.94 |
| CC(NC(=O)CCc1cccc(OC2CCCC2)c1)c1nncn1C (configuration not stated) | 2.36 |
| OCCN(Cc1ccno1)Cc1cc(Br)ccc1F | -14.1 |
| CCC(Nc1nccc(C2CCCC2)n1)c1ccncc1 (configuration not stated) | 3.69 |
| CN(Cc1ccsc1)C(=O)CNC(=O)N1CCc2ccccc2C1 | -7.67 |
| CC(=O)N1[C@H](CN(C)C)C[C@@H]2CN(C(=O)c3cnc(C)cn3)CC[C@@H]21 | -5.19 |
| COc1ccc2c(c1)OCC(CNC(=O)NC(C)(C)C)C2 (configuration not stated) | -0.00962 |
| CN(Cc1ccccc1)C(=O)CCNS(=O)(=O)c1cccnc1 | 11.8 |
| COc1ccc(OC)c(CNc2c(O)c(=O)c2=O)c1 | -21.2 |

| Structure (SMILES) | cytotoxicity at 70.5 h [%] |
| --- | --- |
| Cc1ccc2c(c1)SCC(=O)N2CC(=O)N1CCC[C@H]1c1nc(C)no1 | -5.13 |
| CCC(NC(=O)Nc1ccc(OC)c(C)c1)c1ccncc1 (configuration not stated) | -4.85 |
| COCc1cc(C[C@@H]2CC[C@H](O)[C@@H](CN(CC(C)C)CC(C)C)O2)no1 | -0.301 |
| O=C1NCCN1C1CCN(Cc2nc(-c3ccc(F)cc3)no2)CC1 | 25 |
| CCC(=O)N1CCC2(CC1)CN(C(C)=O)c1ccc(C)cc12 | -9.39 |
| O=C(C1CCCCC1)N1CCC2(CC1)OCCO2 | -5.09 |
| CCc1[nH]ncc1C(=O)N1CCCC(n2ccnc2C)C1 (configuration not stated) | -7.72 |
| O=C(CO)N1CCCn2nnc(Cn3cccn3)c2C1 | 11.5 |
| COCC1CCN(C(=O)c2cccc(S(=O)(=O)NC3CCCC3)c2)C1 (configuration not stated) | -6.74 |
| CC(C(=O)NCc1ccco1)N1CCN(Cc2nccn2C)CC1 (configuration not stated) | -5.54 |
| CS(=O)(=O)NC[C@]12COC[C@H]1CN(CC1CCCC1)C2 | -12.8 |
| O=C1[C@H]2CN(C3CCOCC3)C[C@H]2CN1Cc1cccnc1 | 3.06 |
| O=C1COc2ccc(S(=O)(=O)NCC3CCCO3)c3c2N1CCC3 (configuration not stated) | 1.71 |
| CC(Cn1cccn1)NCc1nc(-c2cccc(Cl)c2)no1 (configuration not stated) | 7.24 |
| Cc1nn(CN(Cc2ccsc2)C2CC2)c(=O)c2noc(C)c12 | -8.61 |
| CC(C(=O)N1CCC(Cc2ccc(F)cc2)CC1)n1ccnc1 (configuration not stated) | 20.4 |
| O=C1CC2(CCN(S(=O)(=O)c3cccs3)C2)CN1c1cccc(F)c1 (configuration not stated) | -9.07 |
| CC(C)(CNC1CCCN(Cc2ccccc2F)C1)CN1CCOCC1 (configuration not stated) | -15.7 |
| Cc1nn(-c2ccc(C(=O)O)cc2)c2c1C(c1ccsc1)SCC(=O)N2 (configuration not stated) | -1.43 |

| Structure (SMILES) | cytotoxicity at 70.5 h [%] |
| --- | --- |
| CN1CCN(CCO)C(=O)C12CCN(c1nccs1)CC2 | -2.35 |
| Cc1ccsc1CN(C)Cc1nc2c(cnn2C)c(=O)[nH]1 | -7.29 |
| Cc1cccc(-c2nc(C)nn2CN2CCN(c3ncccn3)CC2)c1 | -5.76 |
| Cc1nc(C)n(C2CCCN(C(=O)Cc3cn4ccccc4n3)C2)n1 (configuration not stated) | 1.25 |
| CC/N=c1/c(NC(=O)NCCOC)c(O)oc2ccccc12 | 30.4 |
| Cc1ccccc1C(CNC(=O)CSc1nnc(N)s1)N(C)C (configuration not stated) | -6.4 |
| CNC(=O)c1nc2c(s1)CCN(C(=O)Cc1ccc(OC)cc1)CC2 | 20.5 |
| Cc1cccn2cc(CC(=O)N3CCCC(n4cncn4)C3)nc12 (configuration not stated) | -3.85 |
| CN1CCN(C(=O)c2csnn2)c2ccccc21 | 20.8 |
| CCn1ccnc1CN1CCCN(C(=O)COC2CCCC2)CC1 | 22.5 |
| CC(C)(C)c1ccc(=O)n(CN2CCCC(C(F)(F)F)C2)n1 (configuration not stated) | -7.29 |
| O=C(CCc1ccc(F)c(F)c1)N1CCCCC1Cn1cccn1 (configuration not stated) | -7.69 |
| Cc1noc(C)c1CN1CCCC2(C1)CN(c1nncs1)CCO2 (configuration not stated) | -7.2 |
| COCC(=O)NC[C@H]1CC[C@H](c2nnc(-c3ccncc3)o2)CC1 | 15.8 |
| Cc1nc2ccccn2c1CC(=O)N[C@@H]1CC[C@@H](N2CCCC2)[C@@H]1O | -5.16 |
| Cc1n[nH]c2ncc(CNC3CCCN(c4ncccn4)C3)cc12 (configuration not stated) | 0.0496 |
| COc1ccc(CNC(=O)N(Cc2ccc(F)cc2F)C2CC2)cn1 | 18.5 |
| Cc1nc(CN2CCCC(NCCOc3ccccc3)C2)no1 (configuration not stated) | -5.84 |
| Cc1cn2c(n1)CCC(NC(=O)c1c[nH]c(C)n1)C2 (configuration not stated) | -5.66 |
